The source of these data is US6262073A, “Pharmaceutical methods of use of 5-substituted and 5,5 disubstituted-3,4-dihydroxy-2(5H)-furanones” (Oxis International Inc., priority 2000, dated 2001).

What all share (type): biochemical
Experiment [1] deals with T1, Cyclooxygenase-1 (cyclooxygenase from ram seminal vesicles) (Ovis aries, UniProt P05979).
T1 construct: cyclooxygenase from ram seminal vesicles; from tissue; host or cells: ram seminal vesicles
T1 sequence (P05979 25-600): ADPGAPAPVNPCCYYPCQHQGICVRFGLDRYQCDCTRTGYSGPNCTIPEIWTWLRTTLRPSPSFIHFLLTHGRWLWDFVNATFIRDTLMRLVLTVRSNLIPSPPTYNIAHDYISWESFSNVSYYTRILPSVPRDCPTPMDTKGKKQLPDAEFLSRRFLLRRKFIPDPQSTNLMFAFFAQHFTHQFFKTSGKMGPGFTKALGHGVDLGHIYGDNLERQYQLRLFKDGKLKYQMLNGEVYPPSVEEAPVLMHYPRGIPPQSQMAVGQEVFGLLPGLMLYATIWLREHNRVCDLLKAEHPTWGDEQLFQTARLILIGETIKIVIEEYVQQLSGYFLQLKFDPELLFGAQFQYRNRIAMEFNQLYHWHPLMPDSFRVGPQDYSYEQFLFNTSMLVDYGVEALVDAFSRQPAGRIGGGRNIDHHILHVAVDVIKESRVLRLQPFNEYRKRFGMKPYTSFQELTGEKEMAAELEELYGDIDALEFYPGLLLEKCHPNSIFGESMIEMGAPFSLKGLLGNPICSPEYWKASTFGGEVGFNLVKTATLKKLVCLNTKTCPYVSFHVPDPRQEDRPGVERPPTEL
Briefly: Cyclooxygenase-1 screen (COX-1). The settings on record: 300 μM. The procedure:
(§1) The compounds of the invention were screened for their anti-inflammatory activity using a series of in vitro tests the details of which are given below. The activity of various compounds against 5-lipoxygenase, cycloxygenase-1, cycloxygenase-2 and lipid peroxidase was evaluated. Results of the screening procedures are included in TABLE I, and the activity against 5-lipoxygenase at a test concentration of 1 μM in Table II.
Cyclooxygenase-1 is involved in the formation of prostaglandins and thromboxane via the oxidative metabolism of arachidonic acid. Briefly, cyclooxygenase from ram seminal vesicles is incubated with arachidonic acid (100 μm) for 2 minutes at 37° C. in the presence or absence of test compounds according to the methods of A. T. Evans et al., Biochem. Pharm. 36:2035-2037(1987) and R. Boopathy et al., Biochem J. 239:371-377 (1968). The assay is terminated by the addition of trichioroacetic acid and cyclooxygenase activity is determined by reading the absorbance at 530 nm. […]

Experiment [2] concerns the target T2, Cyclooxygenase-2 (prostaglandin H synthetase-2) from sheep placenta (Ovis aries, UniProt P79208).
T2 construct: cyclooxygenase-2 from sheep placenta; from tissue; host or cells: sheep placenta
T2 sequence (P79208 17-603): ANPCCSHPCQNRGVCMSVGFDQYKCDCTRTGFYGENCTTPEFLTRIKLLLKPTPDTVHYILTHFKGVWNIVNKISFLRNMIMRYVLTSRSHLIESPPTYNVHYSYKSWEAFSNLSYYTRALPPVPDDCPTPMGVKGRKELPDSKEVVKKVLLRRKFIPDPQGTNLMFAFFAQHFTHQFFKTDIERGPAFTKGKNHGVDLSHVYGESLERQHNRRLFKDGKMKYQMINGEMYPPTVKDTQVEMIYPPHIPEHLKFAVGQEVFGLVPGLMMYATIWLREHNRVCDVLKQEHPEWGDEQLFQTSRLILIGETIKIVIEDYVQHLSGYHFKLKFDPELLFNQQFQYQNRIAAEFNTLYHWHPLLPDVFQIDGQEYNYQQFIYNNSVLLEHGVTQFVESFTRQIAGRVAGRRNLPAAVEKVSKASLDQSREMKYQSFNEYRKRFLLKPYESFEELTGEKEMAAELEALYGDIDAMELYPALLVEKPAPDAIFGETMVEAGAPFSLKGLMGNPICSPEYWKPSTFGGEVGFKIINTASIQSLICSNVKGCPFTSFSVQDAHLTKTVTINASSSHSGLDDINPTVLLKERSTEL
Put plainly: Cyclooxygenase-2 screen (COX-2). The settings on record: read-out: COX-2 percent inhibition. The method, then: as §1
Cyclooxygenase-2, also known as prostaglandin H synthetase-2, catalyzes the rate- limiting step in the synthesis of inflammatory prostaglandins. In this reaction cyclooxygenase-2 catalyzes the oxygenation of unesterified precursors to form cyclic endoperoxide derivatives, including prostaglandin H. Briefly, cyclooxygenase-2 from sheep placenta, 14 μg/assay tube, is incubated with arachidonic acid (500 μM) for 1.5 minutes at 27° C. in the absence or presence of test compounds according to the methods of A. T. Evans, et al., Biochem Pharm. […] Res. Comm. […] Compounds are screened at 300 μM.

Experiment [3] deals with T3, 5-Lipoxygenase (crude enzyme preparation from rat basophilic leukemia cells, RBL-1) (Rattus norvegicus, UniProt P12527).
T3 construct: crude enzyme preparation from rat basophilic leukemia cells (RBL-1); endogenous in cells; host or cells: rat basophilic leukemia cells (RBL-1)
T3 sequence (P12527 1-673): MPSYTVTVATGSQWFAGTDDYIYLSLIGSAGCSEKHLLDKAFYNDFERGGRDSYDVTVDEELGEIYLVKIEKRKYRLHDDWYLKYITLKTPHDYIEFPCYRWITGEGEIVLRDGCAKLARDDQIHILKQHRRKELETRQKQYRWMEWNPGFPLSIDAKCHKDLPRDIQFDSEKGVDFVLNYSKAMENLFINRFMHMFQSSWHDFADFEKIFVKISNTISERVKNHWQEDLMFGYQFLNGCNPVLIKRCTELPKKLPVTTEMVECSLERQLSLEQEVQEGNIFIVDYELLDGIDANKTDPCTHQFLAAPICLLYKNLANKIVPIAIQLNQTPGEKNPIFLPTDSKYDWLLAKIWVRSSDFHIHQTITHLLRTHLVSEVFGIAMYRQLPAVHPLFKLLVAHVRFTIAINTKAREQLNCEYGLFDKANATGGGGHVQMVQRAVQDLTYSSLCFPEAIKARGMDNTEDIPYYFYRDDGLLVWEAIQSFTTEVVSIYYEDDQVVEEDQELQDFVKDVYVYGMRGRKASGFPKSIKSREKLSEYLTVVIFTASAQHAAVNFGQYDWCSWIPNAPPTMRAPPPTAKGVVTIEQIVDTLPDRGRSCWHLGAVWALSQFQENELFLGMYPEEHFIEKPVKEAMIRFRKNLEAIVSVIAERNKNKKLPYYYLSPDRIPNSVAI
Put plainly: 5-Lipoxygenase screen (5-LO), 5-HETE by RIA. The settings on record: for inhibition at 30 µM: read-out: 5-LO percent inhibition; for inhibition at 1 µM: read-out: Percent inhibition of 5-LO, test conc. 1 μM (Table II). The procedure: as §1
5-Lipoxygenase catalyzes the oxidative metabolism of arachidonic acid to […] (5-HETE), the initial reaction leading to the formation of the leukotrienes. Briefly, the testing procedure utilizes a crude enzyme preparation from rat basophilic leukemia cells (RBL-1) according to the methods of T. Shimuzu et al. Pro. […] Test compounds are pre-incubated with the enzyme preparation for 5 minutes at room temperature and the reaction is initiated by the addition of arachidonic acid. Following an 8 minute incubation at room temperature, the reaction is terminated by the addition of citric acid and concentrations of 5-HETE are determined by RIA. Compounds are screened at 30 μM.

For experiment [4], the system named is Lipid peroxidation (rat liver microsomes). Briefly: Lipid peroxidation screen (LPO), CCl4-induced, liver microsomes. Particulars: for LPO percent inhibition: 300 μM. The method, then:
as §1
Lipid peroxidation is a consequence of various stimuli, including reactive free radicals. Polyunsaturated fatty acids associated with plasma membranes are degraded due to enzymatic induction by reactive agents such as CCl4, leading to cellular damage. Briefly, microsomes are prepared from rat livers and the protein concentration is determined according to the method of D. Mansuy et al., Biochem. Biophys. Res. Comm. 135:1015-1021(1986). A reaction mixture consisting of 2 mg of the microsomal preparation, an NADPH generating system, 20 mM CCl4 and test compound are incubated for 12 minutes at 37° C. The reaction is terminated by the addition of a mixture of thiobarbituric acid and trichloroacetic acid. The absorbance is read at 535 nm and is proportional to the concentration of malondialdehyde. Compounds are screened at 300 μM.
A general note: Liver microsomes are vesicles of endoplasmic reticulum, rich in cytochrome P450 enzymes.

One may read the inhibition as the drop in the measured response relative to a control, in per cent. Consider `CC1(c2ccccc2)OC(=O)C(O)=C1O` (centres unmarked) [Example 1, 3,4-Dihydroxy-5-methyl-5-phenyl-2(5H)-furanone], for which the COX-1 percent inhibition in experiment [1] was -12%. Also, the inhibition at 300 µM in experiment [2] is 3%. Besides, the inhibition at 30 µM in experiment [3] was found to be 58%. Moreover, the LPO percent inhibition in experiment [4] was found to be 63%.

`CC(C)Cc1ccc(C2(C)OC(=O)C(O)=C2O)cc1` (centres unmarked) [Example 3, 3,4-Dihydroxy-5-methyl-5-[4-(2-methylpropyl)phenyl]-2(5H)-furanone]: in experiment [1], the COX-1 percent inhibition is 2%. The inhibition at 300 µM in experiment [2] was -4%. Also, the inhibition at 30 µM in experiment [3] was found to be 99%. Also, the LPO percent inhibition in experiment [4] amounted to 78%.

Turning to `CC1(c2ccc(Cl)cc2)OC(=O)C(O)=C1O` (centres unmarked) [Example 4, 5-(4-Chlorophenyl)-3,4-dihydroxy-5-methyl-2(5H)-furanone], in experiment [1], the COX-1 percent inhibition came out at 2%. For the same compound, the inhibition at 300 µM in experiment [2] was 24%. In experiment [3], the inhibition at 30 µM was 2%. Besides, the LPO percent inhibition in experiment [4] turned out to be 54%.

With `O=C1OC(CCOc2ccc(Oc3ccccc3)cc2)C(O)=C1O` (centres unmarked) [Example 15, 3,4-Dihydroxy-5-[2-(4-phenoxy)phenoxyethyl]-2(5H)-furanone], the COX-1 percent inhibition in experiment [1] is 9%. For the same compound, the inhibition at 300 µM in experiment [2] was -4%. Moreover, in experiment [3], the inhibition at 30 µM was found to be 100% and the inhibition at 1 µM stood at 52%. The LPO percent inhibition in experiment [4] is -5%.

As for `O=C1OC(CCOc2ccc3oc(-c4ccccc4)cc(=O)c3c2)C(O)=C1O` (centres unmarked) [Example 16, 3,4-Dihydroxy-5-[2-(flavone-6-oxy)ethyl]-2(5H)-furanone], the COX-1 percent inhibition in experiment [1] worked out at 17%. In addition, in experiment [2], the inhibition at 300 µM was determined as 2%. Also, in experiment [3], the inhibition at 30 µM was determined as 100% and the inhibition at 1 µM came to 54%. Besides, the LPO percent inhibition in experiment [4] is 76%.

For the compound `O=C1OC(CCOc2ccc3oc4ccccc4c3c2)C(O)=C1O` (centres unmarked) [Example 17, 5-[2-(Dibenzofuran-2-oxy)ethyl]-3,4-dihydroxy-2(5H)-furanone], the COX-1 percent inhibition in experiment [1] is recorded as 17%. Moreover, the inhibition at 300 µM in experiment [2] was found to be 21%. In experiment [3], the inhibition at 30 µM worked out at 99% and the inhibition at 1 µM worked out at 60%. Further, in experiment [4], the LPO percent inhibition turned out to be 74%.

As for `O=C1OC(CCOc2cccc3ccccc23)C(O)=C1O` (centres unmarked) [Example 18, 3,4-Dihydroxy-5-[2-(1-naphthoxy)ethyl]-2(5H)-furanone], the COX-1 percent inhibition in experiment [1] worked out at 11%. Besides, the inhibition at 300 µM in experiment [2] was -12%. In experiment [3], the inhibition at 30 µM is 99% and the inhibition at 1 µM was determined as 49%. Also, in experiment [4], the LPO percent inhibition was 71%.

In the case of `O=C1OC(CCN2C(=O)c3cccc4cccc(c34)C2=O)C(O)=C1O` (centres unmarked) [Example 19, 3,4-Dihydroxy-5-[2-(1,8-naphthalimide)-N-ethyl]-2(5H)-furanone], the COX-1 percent inhibition in experiment [1] is given as 9%. In addition, the inhibition at 300 µM in experiment [2] was found to be 2%. Besides, in experiment [3], the inhibition at 30 µM was found to be 86%. Further, in experiment [4], the LPO percent inhibition turned out to be 68%.

With `O=C1OC(CCN2c3cccc4cccc(c34)S2(=O)=O)C(O)=C1O` (centres unmarked) [Example 20, 3,4-Dihydroxy-5-[2-(1,8-naphthosultam)-N-ethyl]-2(5H)-furanone], the COX-1 percent inhibition in experiment [1] is -15%. In experiment [2], the inhibition at 300 µM is 13%. In experiment [3], the inhibition at 30 µM turned out to be 91% and the inhibition at 1 µM is 38%. Also, the LPO percent inhibition in experiment [4] was found to be 61%.

In the case of `O=C1OC(CCOc2ccccc2Cc2ccccc2)C(O)=C1O` (centres unmarked) [Example 21, 3,4-Dihydroxy-5-[2-(diphenylmethane-2-oxy)ethyl]-2(5H)-furanone], in experiment [1], the COX-1 percent inhibition was found to be 12%. Moreover, in experiment [2], the inhibition at 300 µM was 10%. In addition, in experiment [3], the inhibition at 30 µM was 101% and the inhibition at 1 µM was 62%. Also, in experiment [4], the LPO percent inhibition came out at 68%.

In the case of `O=C1OC(CCOc2ccc(-c3ccccc3)cc2)C(O)=C1O` (centres unmarked) [Example 22, 5-[2-((1,1'-Biphenyl)-4-oxy)ethyl]-3,4-dihydroxy-2(5H)-furanone], in experiment [1], the COX-1 percent inhibition is reported as 18%. Besides, in experiment [2], the inhibition at 300 µM is 10%. In experiment [3], the inhibition at 30 µM worked out at 99% and the inhibition at 1 µM turned out to be 55%. The LPO percent inhibition in experiment [4] came to 74%.

`O=C1OC(CCOc2ccc3ccccc3n2)C(O)=C1O` (centres unmarked) [Example 23, 3,4-Dihydroxy-5-[2-(quinoline-2-oxy)ethyl]-2(5H)-furanone]: in experiment [2], the inhibition at 300 µM was -2%. Moreover, the inhibition at 30 µM in experiment [3] was 93%.

With `O=C1OC(CCSc2cccc3ccccc23)C(O)=C1O` (centres unmarked) [Example 25, 3,4-Dihydroxy-5-[2-(naphthyl-1-thio)ethyl]-2(5H)-furanone], the COX-1 percent inhibition in experiment [1] was 6%. For the same compound, in experiment [2], the inhibition at 300 µM came to 19%. Besides, in experiment [3], the inhibition at 30 µM came out at 102% and the inhibition at 1 µM is 56%. Further, in experiment [4], the LPO percent inhibition stood at 74%.

As a reminder, the IC50 is the concentration at which inhibition is half-maximal. A high value points to a need for much substance. In experiment [4] (reference compound under screen conditions), `Cc1c(C)c2c(c(C)c1O)CCC(C)(CCCC(C)CCCC(C)CCCC(C)C)O2` (stereo not drawn) [alpha-tocopherol, reference compound] registered a half-inhibitory concentration (IC50) of 280 µM.
